Assay results published in patent US20240343704A1, “HALO-SUBSTITUTED AMINO PYRIDINE COMPOUNDS AS INHIBITORS OF THE HAEMATOPOIETIC PROGENITOR KINASE 1 (HPK1)” (priority 2021, published 2024).

How the values were obtained:
Lck (h) = Lck (h) (Homo sapiens, UniProt P06239); assay: Lck Human  Kinase Enzymatic Radiometric Assay; format: biochemical; conditions: read-out: Lck IC50 nM Range*
Summary of the method: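 Substrate 33P-incorporation measured by scintillation counting after spotting on P30 filtermat and phosphoric acid washes. Human Lck reacted 40 min at RT in 50 mM Tris pH 7.5 with 10 mM MgAcetate, [gamma-33P]-ATP, 250 uM Cdc2 peptide, 0.1 mM EGTA and 0.1 mM Na3VO4.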

[1] = target: T1, Recombinant (1-346) HPK1 (h) (Homo sapiens, UniProt Q92918); assay: HPK1 Human STE Kinase Enzymatic Radiometric Assay; format: biochemical; conditions: read-out: HPK1 IC50 nM Range*
T1 construct: Recombinant (1-346) HPK1 (h) is incubated with 8 mM MOPS pH 7.0
T1 sequence (Q92918 1-346): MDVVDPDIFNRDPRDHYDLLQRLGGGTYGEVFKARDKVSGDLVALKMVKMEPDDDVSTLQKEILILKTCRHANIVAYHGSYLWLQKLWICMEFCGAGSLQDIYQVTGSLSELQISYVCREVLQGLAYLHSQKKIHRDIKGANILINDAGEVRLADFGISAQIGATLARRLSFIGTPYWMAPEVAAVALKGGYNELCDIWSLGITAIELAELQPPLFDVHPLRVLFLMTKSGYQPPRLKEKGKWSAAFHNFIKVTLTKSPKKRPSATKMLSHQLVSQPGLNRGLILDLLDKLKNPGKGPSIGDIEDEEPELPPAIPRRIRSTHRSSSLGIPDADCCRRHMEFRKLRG
Protocol: A stock solution of 10 mM of test compound is prepared in DMSO. The compound plate was prepared by 3-fold and 9-point serial dilutions. […] The reaction is initiated by The addition of the Mg/ATP mix. After incubation for 40 minutes at RT, the reaction is stopped by the addition of phosphoric acid to a concentration of 0.5%.

Sequence of Lck (h) (P06239 whole entry): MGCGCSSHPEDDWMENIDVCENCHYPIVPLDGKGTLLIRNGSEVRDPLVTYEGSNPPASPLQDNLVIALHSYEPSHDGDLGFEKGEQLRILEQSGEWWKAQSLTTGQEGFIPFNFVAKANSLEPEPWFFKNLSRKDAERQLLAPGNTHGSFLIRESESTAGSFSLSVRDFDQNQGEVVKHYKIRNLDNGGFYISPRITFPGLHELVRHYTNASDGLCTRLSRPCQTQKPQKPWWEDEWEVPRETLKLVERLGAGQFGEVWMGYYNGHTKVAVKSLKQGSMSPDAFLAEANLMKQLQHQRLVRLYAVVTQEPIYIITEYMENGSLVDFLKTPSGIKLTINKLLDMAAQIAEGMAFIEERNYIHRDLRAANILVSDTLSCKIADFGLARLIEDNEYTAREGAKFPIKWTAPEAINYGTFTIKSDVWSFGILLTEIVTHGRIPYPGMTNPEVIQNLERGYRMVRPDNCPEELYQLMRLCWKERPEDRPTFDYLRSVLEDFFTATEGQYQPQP

Row | IC50 (Lck (h)) | IC50 [1] | SMILES
1 | > 1000 nM | 0.1 to 10 nM | CCN1CCC(c2ccc(-c3cc(-c4cc5c(cc4F)C(=O)NCC5)c(N)nc3F)cc2)CC1 [I-245, 6-(2-amino-5-(4-(1-ethylpiperidin-4-yl)phenyl)-6-fluoropyridin-3-yl)-7-fluoro-3,4-dihydroisoquinolin-1(2H)-one]
2 | > 1000 nM | 11 to 100 nM | CC(C)[C@H]1CN(c2ccc(-c3cc(-c4ccc5c(c4)CCNC5=O)c(N)nc3F)cc2)CCO1 [I-10, (S)-6-(2-amino-6-fluoro-5-(4-(2-isopropylmorpholino)phenyl)pyridin-3-yl)-3,4-dihydroisoquinolin-1(2H)-one]
3 | > 1000 nM | 11 to 100 nM | CC(=O)N1CC(Oc2ccc(-c3cc(-c4cc5c(cc4F)C(=O)NCC5)c(N)nc3F)cc2)C1 [I-341, 6-(5-(4-((1-acetylazetidin-3-yl)oxy)phenyl)-2-amino-6-fluoropyridin-3-yl)-7-fluoro-3,4-dihydroisoquinolin-1(2H)-one]
4 | > 1000 nM | 0.1 to 10 nM | Cc1c[nH]c(=O)c2ccc(-c3cc(-c4ccc(N5CCN(C(C)C)CC5)cc4)c(F)nc3N)cc12 [I-378, 6-(2-amino-6-fluoro-5-(4-(4-isopropylpiperazin-1-yl)phenyl)pyridin-3-yl)-4-methylisoquinolin-1(2H)-one]
5 | > 1000 nM | 11 to 100 nM | Cc1nc2cc(-c3cc(-c4ccc(C5CCOCC5)c(CN(C)C)c4)c(F)nc3N)ccc2c(=O)[nH]1 [I-437, 7-(2-amino-5-(3-((dimethylamino)methyl)-4-(tetrahydro-2H-pyran-4-yl)phenyl)-6-fluoropyridin-3-yl)-2-methylquinazolin-4(3H)-one]
6 | > 1000 nM | 0.1 to 10 nM | CC(C)N1CCN(c2ccc(-c3cc(-c4ccc5c(c4)OCCNC5=O)c(N)nc3F)cc2)CC1 [I-358, 8-(2-amino-6-fluoro-5-(4-(4-isopropylpiperazin-1-yl)phenyl)pyridin-3-yl)-3,4-dihydrobenzo[f][1,4]oxazepin-5(2H)-one]
7 | > 1000 nM | 11 to 100 nM | COCCN1CCC(c2ccc(-c3cc(-c4ccc5c(c4)CCNC5=O)c(N)nc3Cl)cc2)CC1 [I-166, 6-(2-amino-6-chloro-5-(4-(1-(2-methoxyethyl)piperidin-4-yl)phenyl)pyridin-3-yl)-3,4-dihydroisoquinolin-1(2H)-one]
8 | > 1000 nM | 0.1 to 10 nM | Nc1nc(F)c(-c2ccc3c(c2)C(=O)CC2(CCNCC2)O3)cc1-c1ccc2c(c1)CCNC2=O [I-182, 6-(6-amino-2-fluoro-5-(1-oxo-1,2,3,4-tetrahydroisoquinolin-6-yl)pyridin-3-yl)spiro[chromane-2,4′-piperidin]-4-one 2,2,2-trifluoroacetate]
9 | > 1000 nM | 0.1 to 10 nM | COCCN1C[C@H]2C[C@@]2(c2ccc(-c3cc(-c4ccc5c(c4)CCNC5=O)c(N)nc3F)cc2)C1 [I-140, 6-(2-amino-6-fluoro-5-(4-((1R,5S)-3-(2-methoxyethyl)-3-azabicyclo[3.1.0]hexan-1-yl)phenyl)pyridin-3-yl)-3,4-dihydroisoquinolin-1(2H)-one]
10 | > 1000 nM | 0.1 to 10 nM | Nc1nc(F)c(-c2ccc(N3CCSCC3)cc2)cc1-c1cc2c(cc1F)C(=O)NCC2 [I-347, 6-(2-amino-6-fluoro-5-(4-thiomorpholinophenyl)pyridin-3-yl)-7-fluoro-3,4-dihydroisoquinolin-1(2H)-one]
11 | > 1000 nM | 101 to 1000 nM | Nc1nc(F)c(-c2ccc(OC3CCN(CC(F)(F)F)CC3)c(C(F)(F)F)c2)cc1-c1ccc2c(c1)CCNC2=O [I-201, 6-(2-amino-6-fluoro-5-(4-((1-(2,2,2-trifluoroethyl)piperidin-4-yl)oxy)-3-(trifluoromethyl)phenyl)pyridin-3-yl)-3,4-dihydroisoquinolin-1(2H)-one]
12 | > 1000 nM | 0.1 to 10 nM | CC(C)(O)CN1C[C@@H]2C[C@]2(c2ccc(-c3cc(-c4ccc5c(c4)CCNC5=O)c(N)nc3F)cc2)C1 [I-126, 6-(2-amino-6-fluoro-5-(4-((1S,5R)-3-(2-hydroxy-2-methylpropyl)-3-azabicyclo[3.1.0]hexan-1-yl)phenyl)pyridin-3-yl)-3,4-dihydroisoquinolin-1(2H)-one]
13 | > 1000 nM | 0.1 to 10 nM | COCCN1C[C@@H]2C[C@]2(c2ccc(-c3cc(-c4ccc5c(c4)CCNC5=O)c(N)nc3F)cc2)C1 [I-165, 6-(2-amino-6-fluoro-5-(4-((1S,5R)-3-(2-methoxyethyl)-3-azabicyclo[3.1.0]hexan-1-yl)phenyl)pyridin-3-yl)-3,4-dihydroisoquinolin-1(2H)-one]
14 | > 1000 nM | 0.1 to 10 nM | Cc1c[nH]c(=O)c2ccc(-c3cc(-c4ccc(C5CCOCC5)c(CN(C)C)c4)c(F)nc3N)cc12 [I-426, 6-(2-amino-5-(3-((dimethylamino)methyl)-4-(tetrahydro-2H-pyran-4-yl)phenyl)-6-fluoropyridin-3-yl)-4-methylisoquinolin-1(2H)-one]
15 | > 1000 nM | 0.1 to 10 nM | Nc1nc(F)c(-c2ccc(N3CCN(CCC(F)(F)F)CC3)cc2)cc1-c1cc2c(cc1F)C(=O)NCC2 [I-243, 6-(2-amino-6-fluoro-5-(4-(4-(3,3,3-trifluoropropyl)piperazin-1-yl)phenyl)pyridin-3-yl)-7-fluoro-3,4-dihydroisoquinolin-1(2H)-one]
16 | > 1000 nM | 0.1 to 10 nM | CN1C[C@@H]2C[C@]2(c2ccc(-c3cc(-c4ccc5c(c4)CCNC5=O)c(N)nc3F)cc2)C1 [I-106, 6-(2-amino-6-fluoro-5-(4-((1S,5R)-3-methyl-3-azabicyclo[3.1.0]hexan-1-yl)phenyl)pyridin-3-yl)-3,4-dihydroisoquinolin-1(2H)-one]
17 | > 1000 nM | 101 to 1000 nM | CC(C)(C)OC(=O)N1CCN(c2ccc(-c3cc(-c4ccc5c(c4)CCNC5=O)c(N)nc3F)cc2C(F)(F)F)CC1 [I-177, tert-butyl 4-(4-(6-amino-2-fluoro-5-(1-oxo-1,2,3,4-tetrahydroisoquinolin-6-yl)pyridin-3-yl)-2-(trifluoromethyl)phenyl)piperazine-1-carboxylate]
18 | > 1000 nM | 11 to 100 nM | CC(C)N1CCC(Oc2cc(F)c(-c3cc(-c4ccc5c(c4)CCNC5=O)c(N)nc3F)cc2F)CC1 [I-271, 6-(2-amino-5-(2,5-difluoro-4-((1-isopropylpiperidin-4-yl)oxy)phenyl)-6-fluoropyridin-3-yl)-3,4-dihydroisoquinolin-1(2H)-one]
19 | > 1000 nM | 0.1 to 10 nM | CN1CCN(c2ccc(-c3cc(-c4ccc5c(c4)CCNC5=O)c(N)nc3F)nc2)CC1 [I-27, 6-(6′-amino-2′-fluoro-5-(4methylpiperazin-1-yl)-[2,3′-bipyridin]-5′-yl)-3,4dihydroisoquinolin-1(2H)-one acetate]
20 | > 1000 nM | 11 to 100 nM | Nc1nc(F)c(-c2ccc(C3CCCCN3CC(F)(F)F)cc2)cc1-c1ccc2c(c1)CCNC2=O (stereo not shown) [I-93, 6-(2-amino-6-fluoro-5-(4-(1-(2,2,2-trifluoroethyl)piperidin-2-yl)phenyl)pyridin-3-yl)-3,4-dihydroisoquinolin-1(2H)-one]
21 | > 1000 nM | 0.1 to 10 nM | COCCN1CCC(c2ccc(-c3cc(-c4cc5c(cc4F)C(=O)NCC5)c(N)nc3F)cc2)CC1 [I-241, 6-(2-amino-6-fluoro-5-(4-(1-(2-methoxyethyl)piperidin-4-yl)phenyl)pyridin-3-yl)-7-fluoro-3,4-dihydroisoquinolin-1(2H)-one]
22 | > 1000 nM | 11 to 100 nM | CC(C)N1CCC(Oc2ccc(-c3cc(-c4ccc5c(c4)CCNC5=O)c(N)nc3F)c(F)c2F)CC1 [I-270, 6-(2-amino-5-(2,3-difluoro-4-((1-isopropylpiperidin-4-yl)oxy)phenyl)-6-fluoropyridin-3-yl)-3,4-dihydroisoquinolin-1(2H)-one]
23 | > 1000 nM | 11 to 100 nM | Nc1nc(F)c(-c2ccc(OC3CCNCC3)c(F)c2F)cc1-c1ccc2c(c1)CCNC2=O [I-148, 6-(2-amino-5-(2,3-difluoro-4-(piperidin-4-yloxy)phenyl)-6-fluoropyridin-3-yl)-3,4-dihydroisoquinolin-1(2H)-one]
24 | > 1000 nM | 0.1 to 10 nM | Nc1nc(F)c(-c2ccc(OC3CCN(CC4CC4)CC3)cc2)cc1-c1ccc2c(c1)CCNC2=O [I-322, 6-(2-amino-5-(4-((1-(cyclopropylmethyl)piperidin-4-yl)oxy)phenyl)-6-fluoropyridin-3-yl)-3,4-dihydroisoquinolin-1(2H)-one]
25 | > 1000 nM | 0.1 to 10 nM | CS(=O)(=O)[C@@H]1CCN(c2ccc(-c3cc(-c4ccc5c(c4)CCNC5=O)c(N)nc3F)cc2)C1 [I-116, (R)-6-(2-amino-6-fluoro-5-(4-(3-(methylsulfonyl)pyrrolidin-1-yl)phenyl)pyridin-3-yl)-3,4-dihydroisoquinolin-1(2H)-one]

Row | SMILES | IC50 (Lck (h)) | IC50 [1]
26 | CCN1CC=C(c2ccc(-c3cc(-c4cc5c(cc4F)C(=O)NCC5)c(N)nc3F)cc2)CC1 [I-296, 6-(2-amino-5-(4-(1-ethyl-1,2,3,6-tetrahydropyridin-4-yl)phenyl)-6-fluoropyridin-3-yl)-7-fluoro-3,4-dihydroisoquinolin-1(2H)-one] | > 1000 nM | 0.1 to 10 nM
